Assay results as given in ChEMBL document CHEMBL3507680, “University of Dundee, Gates Library screen for HepG2 cell viability”.

Assay: Human HepG2 cell viability assay in 384 well format
Assay type: toxicity, cell-based
Set-up: dose 125 nL, time 70.5 hour; concentration not given beside the values
Details: HepG2 cells, read-out: Inhibition

SMILES	cytotoxicity at 70.5 h [%]
CN(C)c1ncccc1CNS(=O)(=O)c1ccc(F)cc1F	-12.9
CCCc1noc(CCC(=O)N2CCCC2c2ccsc2)n1 (configuration not stated)	-16.1
CCNC(=O)NC(=O)CNc1cc(C(=O)OC)cc(C(F)(F)F)c1	-3.94
CCc1nc(CN(C)C2CCN(CC(=O)N(C)C)C2)no1 (configuration not stated)	-5.61
CC(C)N1CCCC1c1nc(N(C)C)ncc1I (configuration not stated)	-4.13
O=C(CN1CCOC(Cn2cccn2)C1)Nc1ccncc1 (configuration not stated)	-3.63
CCN(Cc1cnc(NCc2ccccc2)nc1)C1CCS(=O)(=O)C1 (configuration not stated)	-7.52
Cc1cnc(C2(C)CCN(Cc3cscn3)CC2)s1	-6.19
Cc1ncc(-c2ccnc(N[C@@H](C)CO)n2)c(C2CCCCC2)n1	24.8
Cc1nc(N2CCCC2)nc2c1CCN(C(=O)C1CCCCC1)CC2	-0.729
C[C@@H]1C[C@@H]2CCN(C(=O)c3ccncn3)C[C@H]2O1	-7.65
O=C(NCC1CC1)C1CN(C(=O)c2cnccn2)CC12CCOCC2 (configuration not stated)	-2.91
COCc1cn(CC2CCN(Cc3cc(C)[nH]n3)CC2)nn1	20
CCCN1CCN(Cc2nc3ccccc3[nH]2)[C@H]2CS(=O)(=O)C[C@H]21	-3.06
CC[C@H](Cn1ncc2ccccc2c1=O)NC(=O)c1cnc(C)cn1	-12.4
CCc1ccsc1C(=O)N1CCN(CC(O)CC)CC1 (configuration not stated)	6.44
Cc1ncc(CNC(=O)c2nn(C)c3c2CS(=O)(=O)CC3)s1	-5.86
c1cnnc(N2CCCC(NCc3nc(C4CC4)no3)C2)c1 (configuration not stated)	-1.23
COc1ccccc1CC1CCN(C(=O)CCN2CCOC2=O)CC1	2.48
O=C(CO[C@@H]1CC[C@H]2[C@H]1OCCN2Cc1ccccn1)N1CCCC1	13.4
Cc1ccsc1[C@@H]1CCN(C(=O)Cc2ccc(O)cc2)C[C@H]1O	-2.32
CCC(C)N(Cc1cnc(OC)nc1)Cc1ccsc1 (configuration not stated)	-3.9
COCC(=O)N1CC[C@H]2C[C@@H](c3nnc(C4CC4)o3)O[C@@H]2C1	5.55

SMILES	cytotoxicity at 70.5 h [%]
COCC(NC(=O)c1ccoc1C)c1cccc(C(F)(F)F)c1 (configuration not stated)	-2.1
O=C(NCCC(=O)N1CCCc2ccccc21)c1c(F)cccc1F	-12.4
COc1cccc(C2CC(=O)Nc3c2cnn3C(C)(C)C)c1 (configuration not stated)	-6.1
O=C(c1cncs1)N1CCC(c2cnccn2)CC1	-8.41
Cc1nnc(NC(=O)CN2CCCC2c2noc(C3CC3)n2)s1 (configuration not stated)	21.8
COCc1nc(C(=O)OCC2CCN(c3ccccc3)C2)cs1 (configuration not stated)	-88.7
CCc1nnsc1-c1nc(C(C)C)nn1-c1ccc2c(c1)OCO2	-5.86
CS(=O)(=O)NC[C@]12COC[C@H]1CN(C(=O)Cc1ccccc1F)C2	-1.03
COc1cc(C)c(S(=O)(=O)NCc2cccnc2N(C)C)c(C)c1	-5.54
O=C1[C@@H]2CCN(Cc3ccc(F)cc3)C[C@@H]2OCCN1c1cccnc1	-3.72
O=C(NCC(F)(F)F)NC1CCCc2c1cnn2CCO (configuration not stated)	-8.96
Cc1nn(CCO)cc1CN1CCC(C(C)N2CCCC2)CC1 (configuration not stated)	-3.99
COc1ccc(OC)c(C(O)CN2CCC(N3CCC(C)CC3)CC2)c1 (configuration not stated)	2.26
CC(=O)NC1CCCN(C(=O)CNc2cccc(C)c2Cl)C1 (configuration not stated)	21.2
CN(C)CC1(O)CCCN(C(=O)c2cnc(-c3ccccn3)nc2)C1 (configuration not stated)	-3.36
CCC(=O)N1CCc2nc3cc(OC)c(OC)cc3c(=O)n2CC1	29.2
CC(C)OCC(=O)Nc1ccc(Oc2ccc3c(c2)OCO3)nc1	-5.21
Cc1ccc(-n2nnnc2SCN2CCCCC2=O)cc1C	-3.89
CN(Cc1ccc(F)cc1)CC1(O)CCN(C(=O)c2ccn(C)n2)C1 (configuration not stated)	-6.54
COCC1CCN(S(=O)(=O)c2ccc(C(=O)NCC(F)F)cc2)C1 (configuration not stated)	9.26
Cc1nc(CN(C)C2CCN(Cc3nc4c(F)cccc4[nH]3)C2)no1 (configuration not stated)	4.6
Cc1cc(C)c2[nH]c(C)c(CC(=O)N(C)CCN(C)C)c2c1	1.29
O=C(CN(Cc1ccccc1)CC1CCOCC1)NC(=O)NC1CC1	11.8

SMILES	cytotoxicity at 70.5 h [%]
COc1cc(C)ccc1S(=O)(=O)N[C@H]1CN(C(C)=O)C[C@@H]1C1CC1	18.1
CC(=O)c1ccc(S(=O)(=O)NCC2CCN(c3cnccn3)CC2)cc1	-4.91
Cc1ccnn1CCC(=O)N1CCCC2(C1)NC(=O)c1ccccc1O2 (configuration not stated)	-2.25
CCS(=O)(=O)Nc1ccn(Cc2cccc(Cl)c2)n1	-4.96
COc1cc(C(=O)N(C)Cc2nccn2CC(F)(F)F)ccc1C	15.7
Cc1ccsc1CNCc1c(C(C)C)nn(C)c1N1CCOCC1	-20.5
Cn1nc(C2CN(C(=O)c3cscn3)C2)c2nccnc21	-3.87
FC(F)(F)C1CCc2nnc(CNCc3ccsc3)n2C1 (configuration not stated)	-2.38
CCCC(=O)N(C)c1cc(C#N)c2ccccc2n1	-2.82
CCN(CCO)C(=O)C1CCC(=O)N(CCc2cccc(F)c2)C1 (configuration not stated)	-1.58
COCCCNCc1cc(O)c2cc(C)cc(C)c2n1	-5.24
Cn1nc(CNC(=O)CC#N)c2c1CN(C(N)=O)CC2	11.4
CCc1csc(C2CCCN(C(=O)c3ccncc3)C2)n1 (configuration not stated)	-5.33
COc1c(CNCc2cccnc2N2CCOCC2)c(C)nn1C	1.9
Cc1ccc(-c2ncc(CN3CCN(C(=O)N(C)C)CC3)s2)o1	-7.74
Cn1cc(Br)c(=O)c(NS(=O)(=O)c2cc(F)ccc2Cl)c1	6.1
CCSc1cc(C(=O)NCCNC(=O)N(C)C)ccn1	-76.6
CCCN1CCN(c2nc(N)nc3c2nc(C)n3C)CC1	20.9
NC(=O)c1cc(C2CCCN(C(=O)CCc3ccccn3)C2)n[nH]1 (configuration not stated)	-3.73
Cn1cc(C2CC(=O)NC23CCN(Cc2nccs2)CC3)cn1 (configuration not stated)	-9.24
O=C(N1CCCC1)N1CCC[C@]2(C[C@@H](Oc3ncccc3F)CO2)C1	-4.8
CC(C)C(=O)Nc1ccc2c(c1)ncn2CC(=O)NCCN(C)C	-7
Cc1cc(C[C@@H]2COC[C@@H]2NC(=O)CN2CCCN(C)CC2)on1	-7.54

SMILES	cytotoxicity at 70.5 h [%]
Cn1ccnc1-c1nccn1C[C@@H]1CCCN2CCCC[C@H]12	2.02
COCC1CN(S(=O)(=O)c2cccc(F)c2)Cc2nccn2C1 (configuration not stated)	-7.05
CS(=O)(=O)N1CCC2(CCCN(Cc3ccccn3)C2)CC1	10.3
Cc1ccc(-c2nnc(CN3CCOC(Cn4cccn4)C3)o2)cc1 (configuration not stated)	-7.48
N#CC1COCCN1C(=O)c1ccc2cc[nH]c2c1 (configuration not stated)	-9.25
Cc1ncc(CN2CCCC(O)(c3ccc(F)cc3)CC2)n1C (configuration not stated)	-5.42
COc1ccc(C(=O)C2CCCN(Cc3ccncc3)C2)cc1OC (configuration not stated)	-3.65
CCc1ccc(S(=O)(=O)N2CCCC(c3ncc[nH]3)C2)s1 (configuration not stated)	-4.54
Cn1ccnc1CN1CCCN(Cc2noc(C3CC3)n2)CC1	-1.01
COc1ccc(C(=O)N2CCC(Oc3cccc(C)c3)(C(=O)O)CC2)o1	5.99
NC(=O)C1(Cc2ccccc2-c2cncnc2)CCCNC1 (configuration not stated)	-10.3
Cc1nc(N)cc(C2CN(C(=O)c3cscn3)CCO2)n1 (configuration not stated)	-10.9
COCCN1CC(=O)c2sc(NC(C)C)nc2C1	2.05
CN1C(Cn2cccn2)C[C@@H]2CN(Cc3cnn(C)c3)CC[C@@H]21 (some centres not stated)	-11.7
CCN1CC[C@@]2(C(=O)Nc3ccccc3)CCN(S(C)(=O)=O)CC[C@@H]12	-17.9
CC(COc1ccccc1)NS(C)(=O)=O (configuration not stated)	-1.8
Cc1cnn(CC(=O)N2CCCN(c3nc(C)cs3)CC2)c1	0.581
Cc1nc(-c2ccco2)ccc1C(=O)NCC(=O)N1CCCCC1	-117
Cc1noc([C@@H]2C[C@H]3CN(Cc4cc(C)on4)C[C@H]3O2)n1	-4.39
Cc1cccc(C(=O)NCCCN2CCc3ccccc3C2)c1C	-7.53
COCC(=O)N1CCCC(c2csc(NC(C)=O)n2)C1 (configuration not stated)	-8.74
CN(Cc1noc(C(C)(C)C)n1)C1CCCN(c2cccnn2)C1 (configuration not stated)	44.8
COc1ccc(F)cc1S(=O)(=O)N1CCC(OC)CC1	-2.88

SMILES	cytotoxicity at 70.5 h [%]
O=C(c1cc(-c2cccnc2)[nH]n1)N1CCCC(Cc2ccccn2)C1 (configuration not stated)	9.07
O=C1C[C@@H]2[C@H](CCN2Cc2ccccn2)N1Cc1ccncc1	-4.28
Cc1cc(C)nc(Nc2cc(C)nc(C3CCN(C(C)C)C3)n2)n1 (configuration not stated)	-5.15
Cc1nc(C)n(CC(C)C(=O)N2CCCN(C3CCCC3)CC2)n1 (configuration not stated)	-6.07
CCOc1cccc(C(=O)N2C[C@H]3CC[C@@H]2CN(C(=O)C2CCC2)C3)c1	23.1
CN(CC1CCCCO1)c1nc2c(cc1C(N)=O)CCC2 (configuration not stated)	-8.46
Cn1c(=O)n(C)c2cc(C3SCC(=O)Nc4ccsc43)ccc21 (configuration not stated)	38.6
COc1ncccc1CNC(=O)N1CCC(CN2CCOCC2)CC1	13.3
Cc1cc(C)n(C2CN(C(=O)Cn3c(=O)c(C)nc4ccccc43)C2)n1	30
CCn1c(Cn2cncn2)nnc1C1CCN(C(=O)CCSC)CC1	-4.61
CC(C)(C)NC(=O)c1cnc(C(C)(C)C)s1	3.79
CCc1[nH]c2c(CNC(=O)C3CNC(=O)C3)cc(C)cc2c1C (configuration not stated)	-11.3
NC(=O)CN1C(=O)CO[C@H]2CN(Cc3ccc(C(F)(F)F)cc3)C[C@H]21	-1.74
Cn1cnnc1C1CCCN(C(=O)c2cc(Cl)c3c(c2)OCO3)C1 (configuration not stated)	-11.6
Cc1ccccc1OCCSc1nnc(CC2CCS(=O)(=O)C2)n1C (configuration not stated)	-7.8
O=C(c1cc(-c2ccn(CC3CC3)n2)n2ccccc12)N1CCOCC1	-2.8
c1cc(CN2CCO[C@@H]3CNC[C@@H]32)cs1	-2.99
O=c1[nH]c2ncccc2n1C1CCCCC1	-6.95
Cc1nc(-c2ccc(C(=O)O)cc2)cc(C2CCCN(C(C)C)C2)n1 (configuration not stated)	9.4
CC(C)c1noc(OCc2cccc(S(=O)(=O)N(C)C)c2)n1	-17.9
